Structures are written as SMILES.

Here are results for one compound from US20080261923A1, “Alkene Mimics” (priority 2004, published 2008).

For this experiment, the target named is human Pin1 (Homo sapiens, UniProt Q13526). Put plainly: IC50 measurement of inhibitors for Pin1 (chymotrypsin-coupled peptidyl-prolyl isomerase assay, SucAEPF-pNA). In kind it is biochemical. Particulars: cis substrate SucAEPF-pNA 43.2 μM, 31 mM HEPES pH 7.8, 4° C., absorbance at 390 nm; read-out: IC50 value for the inhibition of human Pin1 peptidyl-prolyl isomerase activity. The method, then:
Measurement of human Pin1 peptidyl-prolyl isomerase activity. The concentration of the cis conformation of substrate, SucAEPF-pNA, was determined by the UV absorbance of pNA (ε=12250 at […]) after cleavage by α-chymotrypsin. The cis component of the substrate was approximately 51%. The assay buffer (1050 μL of 35 mM HEPES, pH 7.8 at 0° C.; final concentration 31 mM HEPES) and Pin1 (10 μL of a 8.0 μM stock solution, concentration measured by Bradford assay, final concentration 67 nM) were pre-equilibrated in the spectrometer until the temperature reached 4.0° C. Immediately before the assay was started, 120 μL of ice-cooled α-chymotrypsin solution (60 mg/mL in 0.001 M HCl; final concentration 6 mg/mL) was added. Additional substrate solvent (0.47 M LiCl/TFE) was added as needed to bring the total volume of substrate and cosolvent to 10 μL. The peptide substrate, dissolved in dry 0.47 M LiCl/TFE, was added to the cuvette via syringe and the solution was mixed vigorously by inversion 3 times. The final volume in a semi micro 1 cm path length polystyrene cell was 1.2 mL.
IC50 measurement of inhibitors for Pin1. Human Pin1 was assayed at a cis substrate concentration of 43.2 μM. […] After a mixing delay of 6-8 sec, the progress of the reaction was monitored by absorbance at 390 nm for 90 sec.

Sequence of human Pin1 (Q13526 whole entry): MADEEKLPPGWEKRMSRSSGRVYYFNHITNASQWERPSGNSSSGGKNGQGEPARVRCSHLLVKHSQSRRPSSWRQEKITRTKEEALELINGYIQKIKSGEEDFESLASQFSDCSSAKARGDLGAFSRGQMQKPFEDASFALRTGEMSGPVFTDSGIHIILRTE

The IC50 is the concentration that inhibits the measured activity by half. `CC(=O)N[C@@H](Cc1ccccc1)C(=O)N[C@@H](Cc1ccc(O)cc1)C(=O)N[C@H](/C=C1/CCC[C@H]1C(=O)N[C@@H](CCCNC(=N)N)C(N)=O)COP(=O)(O)O` [Ac-Phe-Tyr-phosphoSer-Ψ[(Z)CH═C]-Pro-Arg-NH2]: the IC50 stood at 970 nM.
